Patent US20240158754A1, “REDUCING HIGH MANNOSE GLYCAN PROTEIN EXPRESSION USING GUANOSINE 5'-MONOPHOSPHATE” (MERCK SHARP & DOHME LLC, priority 2021, published 2024)
Entries after “also recorded” stand apart in the source; their conditions may differ.

Columns and labels:
Type in all cases: cell-based, Chinese hamster
[1] = system: recombinant CHO cell line expressing mAb A; test: 10-day fed-batch assay of eighteen components (Example 1); settings: for Relative IVCC (% to Control): added day 6, harvest day 10; for Relative IVCC (% to Control) / Relative Titer (% to Control) / Relative Viability (% to Control): mAb A cell line
Method: (§1) Experiment was executed by dividing into 6-blocks. In each experiment block, 3 unique test components were assessed and control conditions with no added test component were included for all three cell lines. Cells were cultured in Merck proprietary chemically defined media in increasing volume to obtain sufficient number of cells for inoculation. […] Merck proprietary chemically defined nutrient feed media were added to all the cultures on day 3, day 6, and day 8. On Day 6, cells from both 1 L flasks for each cell line were pooled and then aliquoted in 125 mL Erlenmeyer flasks with 30 mL working volume, respectively. Stock solutions for each of the tested component were prepared as defined in Table 1 below, and all components were ordered from Sigma Aldrich (St. Louis, MO). Component 6 is GMP. All solutions were prepared in purified water. For each cell line, components were added to the cultures at final concentration at a lower and higher concentrations as per Table 1, respectively, on day 6 of the fed-batch culture. […] A control condition with no added test component was also created for each cell line. All conditions were run with two replicates. All cultures were harvested on day 10.
(§2) Cell culture parameters were analyzed on day 0, 3, 6, 8 and 10, and the corresponding spent medium supernatants were evaluated for antibody titer, charge variants and glycan analysis on day 10 to assess the effect of added components on cell growth, viability, titer, aggregation, charge variants and glycan profile of the recombinant antibodies. Cell density and viability were measured using the trypan blue exclusion method with Cedex Bio Analyzer (Roche Diagnostics GmbH, Mannheim, Germany). Culture pH was measured using ABL80 Blood/Gas Analyzer (Radiometer, Denmark).
(§3) Antibody titer was analyzed using a mAb-specific reverse-phase high-performance liquid chromatography (HPLC) or analytical Protein A HPLC method. Multiple product quality attributes were analyzed on harvested cell-culture fluid (HCCF) after a Protein A chromatography step. Analysis of HMW species was performed by size-exclusion chromatography, analysis of charge variants was performed by ion exchange chromatography, and analysis of N-glycan was performed by ultra-performance liquid chromatography (UPLC) with 2-aminobenzamide (2-AB) labeling.
(§4) Data generated from all 6 blocks for all tested components (excluding component 9 and 12) were transformed using a dimensionless number, which is termed as Concentration Impact Factor, and abbreviated as Cf. Cf provides a score value for impact of change in component's concentration on desired response when tested at different concentrations. The equation used to transform data to calculate Cf is described below as equation 1. The first part of the equation represents a directional vector, which determines whether increasing the component concentration from a lower value to a higher value results in a positive or negative response for the measure attribute. The second part of the equation then calculates the magnitude of that change as the concentration changes from low to high.
(§5) wherein, • Cf. Concentration impact factor (dimensionless number) • H: Response for a measured attribute when component is added at a higher concentration • L: Response for a measured attribute when component is added at a lower concentration • C: Response for a measured attribute […] • hc: high concentration (mM) of the component added • lc: low concentration (mM) of the component added

[2] = system: recombinant CHO cell line expressing mAb B; test: as above
Method: as §1, §2, §3, §4, §5

[3] = system: recombinant CHO cell line expressing mAb C; test: as above; settings: mAb C cell line (Table 4, untitled)
Method: as §1, §2, §3, §4, §5

[4] = system: recombinant CHO cell line expressing mAb A; test: 10-day fed-batch assay with GMP (Example 2)
Method: (§6) Cells were cultured in Merck proprietary chemically defined media in increasing volume to obtain sufficient number of cells for inoculation. For cell lines expressing mAb A and mAb B, cells were seeded at 0.5×10^6 cells per mL into Merck proprietary chemically defined production medium in two 1 L Erlenmeyer flasks at a final volume of 250 mL in each flask. For cell line expressing mAb C, cells were seeded at 1.0×10^6 cells per mL into production medium in two 1 L Erlenmeyer flasks at a final volume of 250 mL in each flask. Cells were incubated at 36.5° C., with agitation at 100 rpm, in presence of 5% CO2, and humidity ≥70%. Merck proprietary chemically defined nutrient feed media were added to all the cultures on day 3, day 6, and day 8. On Day 6, cells from both 1 L flasks for each cell line were pooled and then aliquoted in 125 mL Erlenmeyer flasks with 30 mL working volume, respectively. A 200 mM stock solution of GMP was prepared by adding Guanosine 5′-monophosphate disodium salt hydrate (Sigma Aldrich, St. Louis, MO) in purified water. After the cells were aliquoted in separate 125 mL test flasks on day 6, GMP was added to the cultures at final concentration of 1 mM or 10 mM. No change in pH and osmolality was observed as a result of the GMP addition. A control condition with no added GMP was also created for each cell line. All conditions were run with two replicates. All cultures were harvested on day 10.
as §2, with “variants,” for “variants”, “GMP” for “added components”, “titer,” for “titer, aggregation, charge variants”, “Denmark). Cell culture metabolites were measured using RX Imola (Randox Laboratories Ltd. Crumlin, UK) and osmolality was measured using a micro-Osmometer 2020 (Advanced Instruments, Norwood, MA).” for “Denmark).”
as §3

[5] = system: recombinant CHO cell line expressing mAb B; test: 10-day fed-batch assay with GMP (Example 2)
Method: as §6
as §2, with “variants,” for “variants”, “GMP” for “added components”, “titer,” for “titer, aggregation, charge variants”, “Denmark). Cell culture metabolites were measured using RX Imola (Randox Laboratories Ltd. Crumlin, UK) and osmolality was measured using a micro-Osmometer 2020 (Advanced Instruments, Norwood, MA).” for “Denmark).”
as §3

[6] = system: recombinant CHO cell line expressing mAb C; test: 10-day fed-batch assay with GMP (Example 2)
Method: as §6
as §2, with “variants,” for “variants”, “GMP” for “added components”, “titer,” for “titer, aggregation, charge variants”, “Denmark). Cell culture metabolites were measured using RX Imola (Randox Laboratories Ltd. Crumlin, UK) and osmolality was measured using a micro-Osmometer 2020 (Advanced Instruments, Norwood, MA).” for “Denmark).”
as §3

[7] = system: recombinant CHO cell lines expressing monoclonal antibodies (mAb A, mAb B, or mAb C); test: 10-day fed-batch assay of eighteen components (Example 1), statements for all cell lines; settings: among the 18 tested components
Method: Experiment was executed by dividing into 6-blocks. In each experiment block, 3 unique test components were assessed and control conditions with no added test component were included for all three cell lines. Cells were cultured in Merck proprietary chemically defined media in increasing volume to obtain sufficient number of cells for inoculation. For cell lines expressing mAb A and mAb B, cells were seeded at 0.5×10^6 cells per mL into Merck proprietary chemically defined production medium in two 1 L Erlenmeyer flasks at a final volume of 250 mL in each flask. […]
as §2, with “Denmark). Cell culture metabolites were measured using RX Imola (Randox Laboratories Ltd. Crumlin, UK) and osmolality was measured using a micro-Osmometer 2020 (Advanced Instruments, Norwood, MA). […]” for “Denmark).”

[8] = system: recombinant CHO cell lines expressing monoclonal antibodies (mAb A, mAb B, or mAb C); test: 10-day fed-batch assay with GMP (Example 2), statements for all cell lines
Method: as §6
as §2, with “variants,” for “variants”, “GMP” for “added components”, “titer,” for “titer, aggregation, charge variants”, “Denmark). Cell culture metabolites were measured using RX Imola (Randox Laboratories Ltd. Crumlin, UK) and osmolality was measured using a micro-Osmometer 2020 (Advanced Instruments, Norwood, MA).” for “Denmark).”
as §3

[9] = Higher Concentration per Table 1
[10] = Lower Concentration per Table 1

## Nc1nc2c(ncn2[C@@H]2O[C@H](COP(=O)(O)O)[C@@H](O)[C@H]2O)c(=O)[nH]1 [Component 6, Guanosine 5′-monophosphate]
[1]; Higher Concentration per Table 1 (GMP 10 mM)
  Relative IVCC (% to Control): 95.08 % to Control
[1]; [9]
  Relative Titer (% to Control): 96.14 % to Control
  Relative Viability (% to Control): 91.8 % to Control
[1]; Lower Concentration per Table 1 (GMP 1 mM)
  Relative IVCC (% to Control): 100.61 % to Control
[1]; [10]
  Relative Titer (% to Control): 101.88 % to Control
  Relative Viability (% to Control): 96.75 % to Control
[1]; mAb A, lower vs higher concentration
  dose dependent change in Man 5 peak (Cf): largest dose dependent decrease in Man 5 peak
[2]; [9]
  Relative IVCC (% to Control): 90.77 % to Control
  Relative Titer (% to Control): 94.86 % to Control
  Relative Viability (% to Control): 95.28 % to Control
[2]; [10]
  Relative IVCC (% to Control): 96.14 % to Control
  Relative Titer (% to Control): 100.81 % to Control
  Relative Viability (% to Control): 100.77 % to Control
[3]; [9]
  Relative IVCC (% to Control): 79.88 % to Control
  Relative Titer (% to Control): 103.8 % to Control
  Relative Viability (% to Control): 87.81 % to Control
[3]; [10]
  Relative IVCC (% to Control): 97.24 % to Control
  Relative Titer (% to Control): 102.19 % to Control
  Relative Viability (% to Control): 99.25 % to Control
[4]; GMP 1 mM
  Cumulative Titer: 158 mg/L
  Final viability: 85.5%
  IVCC: 46.4 10^6 cells · Day/mL
  high mannose glycans: slight decrease
[4]; GMP 10 mM
  Cumulative Titer: 167 mg/L
  Final viability: 77.4%
  IVCC: 44.3 10^6 cells · Day/mL
  cell growth: slight decrease
[4]; GMP final concentration 1 mM
  Man 5 (HMG level, value relative to control): 0.97
  Total HMG (value relative to control): 0.96
[4]; GMP final concentration 10 mM
  Man 5 (HMG level, value relative to control): 0.76
  Total HMG (value relative to control): 0.76
[5]; GMP 1 mM
  Cumulative Titer: 314 mg/L
  Final viability: 86.9%
  IVCC: 52.7 10^6 cells · Day/mL
[5]; GMP 10 mM
  Cumulative Titer: 296 mg/L
  Final viability: 82.1%
  IVCC: 49.7 10^6 cells · Day/mL
  cell growth: slight decrease
[5]; GMP final concentration 1 mM
  Man 5 (HMG level, value relative to control): 1.02
  Total HMG (value relative to control): 1.01
[5]; GMP final concentration 10 mM
  Man 5 (HMG level, value relative to control): 0.91
  Total HMG (value relative to control): 0.90
[6]; GMP 1 mM
  Cumulative Titer: 690 mg/L
  Final viability: 98.5%
  IVCC: 86.5 10^6 cells · Day/mL
  high mannose glycans: slight decrease
[6]; GMP 10 mM
  Cumulative Titer: 701 mg/L
  Final viability: 86.3%
  IVCC: 71.1 10^6 cells · Day/mL
  cell growth: considerable decrease
[6]; GMP final concentration 1 mM
  Man 5 (HMG level, value relative to control): 0.98
[6]; GMP final concentration 10 mM
  Man 5 (HMG level, value relative to control): 0.68
[7]
  overall HMG content, in particular Man 5 species, of the monoclonal antibodies produced: reduced
[8]
  higher order mannose structures: slight decrease
[8]; GMP 1 mM
  impact on cell culture parameters: no impact
[8]; GMP 1 mM and 10 mM
  HMG content on the recombinant antibodies: dose dependent decrease
[8]; GMP 10 mM, all cell lines
  high mannose: large decreases
[8]; mAb A, mAb B, and mAb C, listed as GMP
  Man 5 content: major high mannose species downregulated; also recorded: dose dependent decrease
[8]; three CHO cell lines
  cell culture performance parameters (IVCC, final viability, titer, ammonia, lactate): did not significantly affect
